This is an account of results in PubChem BioAssay (NCI).

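Five concentrations, 48 hours, 96-well plates. At the GI50, growth is halved. Definition used: TGI = concentration required for complete inhibition of growth.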

Test systems include MALME-3M melanoma; NCI-H226 lung; MCF7 breast; SK-MEL-28 melanoma; UACC-257 melanoma; RPMI-8226 leukemia; OVCAR-8 ovarian; HOP-62 NSCLC; SR leukemia; SK-OV-3 ovarian.
Experiment in all cases: NCI-60 cell line screen, 48 h

For the compound `CC(=O)c1sc2c(c1O)c(=O)n(-c1ccccc1)c(=S)n2-c1ccccc1`, the TGI with MALME-3M melanoma, in the assay on NCI-H226 lung, in the assay on MCF7 breast, in the assay on SK-MEL-28 melanoma, in the assay on UACC-257 melanoma and with RPMI-8226 leukemia was more than 100 µM throughout. Besides, in the assay on OVCAR-8 ovarian, the TGI was more than 100 µM.

For `O=C1Nc2ccccc2C1S(=O)(=O)c1ccccc1` (stereo not drawn), the TGI in the assay on HOP-62 NSCLC, in the assay with MALME-3M melanoma, with NCI-H226 lung, in the assay on SR leukemia, with SK-MEL-28 melanoma and with UACC-257 melanoma was more than 100 µM in each case. The TGI with RPMI-8226 leukemia, in the assay with OVCAR-8 ovarian and with SK-OV-3 ovarian was more than 100 µM throughout.

For `CC1CCN(c2cc(-c3cc4ccccc4o3)oc(=O)c2C#N)CC1`, the TGI in the assay with MALME-3M melanoma, in the assay on NCI-H226 lung, in the assay on SR leukemia, in the assay with SK-MEL-28 melanoma, in the assay on UACC-257 melanoma and in the assay on RPMI-8226 leukemia was more than 100 µM each time. The same compound displayed a TGI with OVCAR-8 ovarian of more than 100 µM.

As for `COC(=O)c1cc2ccccc2c2nc3ccccc3c(Cl)c12`, the TGI with HOP-62 NSCLC, with MALME-3M melanoma, in the assay on SR leukemia, in the assay with SK-MEL-28 melanoma, in the assay with UACC-257 melanoma and with RPMI-8226 leukemia was more than 100 µM each time. Further, the TGI in the assay with OVCAR-8 ovarian was more than 100 µM.

Turning to `CC(=O)O[C@H]1C[C@@H](OC(C)=O)[C@@](C)(O)[C@@H]2[C@@H](OC(C)=O)[C@@]3(O)[C@H](/C=C(/CCl)[C@H]4O[C@H]4[C@@H](OC(C)=O)[C@@]12C)OC(=O)[C@@H]3C`, the TGI in the assay on HOP-62 NSCLC, in the assay with MALME-3M melanoma, in the assay with NCI-H226 lung, in the assay on SK-MEL-28 melanoma, with UACC-257 melanoma and in the assay on RPMI-8226 leukemia was more than 25 µM each time. Further, the TGI in the assay with OVCAR-8 ovarian and in the assay on SK-OV-3 ovarian was more than 25 µM throughout.

With `CO[C@]12C[C@@H](CNC(=O)c3cc(Br)c[nH]3)O[C@H]1NC(=O)N2`, the TGI with HOP-62 NSCLC, in the assay on MALME-3M melanoma, in the assay on NCI-H226 lung, in the assay with MCF7 breast, in the assay on SK-MEL-28 melanoma and in the assay on UACC-257 melanoma was more than 100 µM each time. In addition, the TGI in the assay with RPMI-8226 leukemia, in the assay on OVCAR-8 ovarian and with SK-OV-3 ovarian was more than 100 µM throughout.

`COc1ccc2nc(-c3ccc(O)cc3)ccc2c1`: the TGI in the assay on HOP-62 NSCLC, in the assay with MALME-3M melanoma, with NCI-H226 lung, with SR leukemia, in the assay with SK-MEL-28 melanoma and in the assay with UACC-257 melanoma was more than 100 µM throughout. Also, the TGI in the assay on RPMI-8226 leukemia, in the assay with OVCAR-8 ovarian and with SK-OV-3 ovarian was more than 100 µM each time.

For `O=C(O)c1ccccc1CC(Cc1ccccc1)C(=O)O` (stereo not drawn), the TGI in the assay with HOP-62 NSCLC, with MALME-3M melanoma, in the assay with NCI-H226 lung, with SR leukemia, in the assay on SK-MEL-28 melanoma and with UACC-257 melanoma was more than 100 µM in each case. In addition, the TGI in the assay with RPMI-8226 leukemia, with OVCAR-8 ovarian and with SK-OV-3 ovarian was more than 100 µM in each case.

As to `CSc1nc(C)cc(=O)n1C1OC(COC(C)=O)C(OC(C)=O)C(OC(C)=O)C1OC(C)=O` (stereo not drawn), the TGI with MALME-3M melanoma, in the assay with NCI-H226 lung, with SR leukemia, with SK-MEL-28 melanoma, in the assay with UACC-257 melanoma and in the assay with RPMI-8226 leukemia was more than 100 µM each time. Further, the TGI in the assay with OVCAR-8 ovarian and in the assay on SK-OV-3 ovarian was more than 100 µM each time.

In the case of `O[C@]12c3ccccc3C1CCCCC2N1CCOCC1` (stereo partly drawn), the TGI with HOP-62 NSCLC, with MALME-3M melanoma, in the assay on NCI-H226 lung, in the assay on SR leukemia, in the assay on SK-MEL-28 melanoma and in the assay with UACC-257 melanoma was more than 100 µM in each case. Further, the TGI in the assay with RPMI-8226 leukemia, with OVCAR-8 ovarian and with SK-OV-3 ovarian was more than 100 µM throughout.

Take `OC1CSCCSCCCSCCSC1`: the TGI in the assay on HOP-62 NSCLC, with NCI-H226 lung, in the assay on MCF7 breast, in the assay on SK-MEL-28 melanoma, in the assay on UACC-257 melanoma and in the assay with RPMI-8226 leukemia was more than 100 µM in each case. The TGI with OVCAR-8 ovarian and in the assay with SK-OV-3 ovarian was more than 100 µM throughout.

For `Brc1ccc(-c2nc(-c3ccc(Br)cc3)n(-c3ccccc3)n2)cc1`, the TGI in the assay on HOP-62 NSCLC, in the assay on NCI-H226 lung, with MCF7 breast, with SK-MEL-28 melanoma, with UACC-257 melanoma and in the assay on OVCAR-8 ovarian was more than 100 µM each time. In the assay on SK-OV-3 ovarian, the TGI was more than 100 µM.

In the case of `CC1=NNC(=O)[C@H]2[C@H]1CCC1[C@@H]2CC[C@]2(C)[C@@H](O)CC[C@@H]12` (stereo partly drawn), the TGI in the assay on HOP-62 NSCLC, with MALME-3M melanoma, in the assay with NCI-H226 lung, in the assay with MCF7 breast, in the assay with SK-MEL-28 melanoma and with UACC-257 melanoma was more than 100 µM each time. The TGI in the assay with RPMI-8226 leukemia, with OVCAR-8 ovarian and in the assay with SK-OV-3 ovarian was more than 100 µM each time.

Consider `COc1cccc2c1[C@H]1OC(=O)NC1CCCCC2` (stereo partly drawn), for which the TGI in the assay on HOP-62 NSCLC, in the assay on MALME-3M melanoma, in the assay on NCI-H226 lung, in the assay on SK-MEL-28 melanoma, with UACC-257 melanoma and with RPMI-8226 leukemia was more than 100 µM each time. Besides, the TGI with OVCAR-8 ovarian and in the assay on SK-OV-3 ovarian was more than 100 µM throughout.

For `CCOP(=O)(/C=C\n1ccc(=O)[nH]c1=O)OCC`, the TGI in the assay on HOP-62 NSCLC, in the assay with NCI-H226 lung, in the assay with MCF7 breast, with SK-MEL-28 melanoma, in the assay on UACC-257 melanoma and in the assay with RPMI-8226 leukemia was more than 100 µM in each case. Also, the TGI in the assay with OVCAR-8 ovarian and with SK-OV-3 ovarian was more than 100 µM in each case.

As to `Nc1ncnc2c1ncn2CCOC(c1ccccc1)P(=O)(O)O` (stereo not drawn), the TGI in the assay with MALME-3M melanoma, in the assay with NCI-H226 lung, in the assay on SR leukemia, in the assay on SK-MEL-28 melanoma, with UACC-257 melanoma and in the assay on OVCAR-8 ovarian was more than 100 µM throughout. This compound also showed a TGI in the assay with SK-OV-3 ovarian of more than 100 µM.

Consider `O=C1c2ccccc2/C=C\C(c2ccccc2)=N/N1c1ccccc1Cl`, for which the TGI with HOP-62 NSCLC was 92.8 µM; in the assay with MALME-3M melanoma, 71.4 µM; in the assay on NCI-H226 lung, more than 100 µM; in the assay with MCF7 breast it was 63.9 µM; in the assay on SK-MEL-28 melanoma, more than 100 µM; in the assay with UACC-257 melanoma, 90.5 µM. In addition, the TGI in the assay on RPMI-8226 leukemia is 80.5 µM; in the assay on OVCAR-8 ovarian it was more than 100 µM.

`CCN(CC)C(=S)SSCCO`: the GI50 with HOP-62 NSCLC is more than 100 µM; with MALME-3M melanoma, 17.9 µM; in the assay with NCI-H226 lung, more than 100 µM; in the assay with SK-MEL-28 melanoma, 15.8 µM; in the assay on UACC-257 melanoma, 19.1 µM; in the assay on RPMI-8226 leukemia it was 14.4 µM. The GI50 in the assay with OVCAR-8 ovarian is 19.3 µM; with SK-OV-3 ovarian, 73.9 µM. For the same compound, the TGI with HOP-62 NSCLC was more than 100 µM; in the assay on MALME-3M melanoma, 35 µM; with NCI-H226 lung, more than 100 µM; in the assay on SK-MEL-28 melanoma, 29.3 µM; with UACC-257 melanoma, 48.6 µM; with RPMI-8226 leukemia it was 39.5 µM. The TGI in the assay on OVCAR-8 ovarian is 38.7 µM; in the assay with SK-OV-3 ovarian it was more than 100 µM.

Turning to `CCOP(=O)(/C=C/n1cnc2c(=O)n(C(C)=O)c(N)nc21)OCC`, the TGI with HOP-62 NSCLC, in the assay with NCI-H226 lung, with MCF7 breast, with SK-MEL-28 melanoma, in the assay with UACC-257 melanoma and in the assay on RPMI-8226 leukemia was more than 100 µM throughout. Also, the TGI in the assay with OVCAR-8 ovarian and with SK-OV-3 ovarian was more than 100 µM each time.

For the compound `COc1ccc(/C=N/n2c(Cc3ccccc3)n[nH]c2=O)cc1`, the TGI in the assay on HOP-62 NSCLC, in the assay on MALME-3M melanoma, with NCI-H226 lung, with MCF7 breast, in the assay with SK-MEL-28 melanoma and in the assay with UACC-257 melanoma was more than 100 µM in each case. Also, the TGI in the assay on RPMI-8226 leukemia, in the assay with OVCAR-8 ovarian and with SK-OV-3 ovarian was more than 100 µM in each case.

For `O=C(NN1C(=O)C(Cl)C1c1c(O)ccc2ccccc12)c1ccccc1O` (stereo not drawn), the TGI in the assay on MALME-3M melanoma, in the assay with NCI-H226 lung, with SK-MEL-28 melanoma, in the assay with UACC-257 melanoma, in the assay with OVCAR-8 ovarian and with SK-OV-3 ovarian was more than 100 µM throughout.

Turning to `CC(=O)N1c2ccccc2[C@H]2CCc3c([nH]c4ccccc34)[C@H]21`, the TGI in the assay with HOP-62 NSCLC was 28.1 µM; in the assay on MALME-3M melanoma, 30.7 µM; in the assay with NCI-H226 lung it was 36.7 µM; with SK-MEL-28 melanoma it was 31.1 µM; with UACC-257 melanoma it was more than 100 µM; in the assay on RPMI-8226 leukemia it was 43.5 µM. The TGI in the assay on OVCAR-8 ovarian and in the assay with SK-OV-3 ovarian was more than 100 µM throughout.

`CCOC(=O)C(C)(Cc1ccc(O)cn1)NC(=O)c1ccccc1` (stereo not drawn): the TGI in the assay with HOP-62 NSCLC, in the assay on MALME-3M melanoma, in the assay on NCI-H226 lung, in the assay with SR leukemia, with SK-MEL-28 melanoma and with UACC-257 melanoma was more than 100 µM each time. Also, the TGI in the assay on RPMI-8226 leukemia, in the assay with OVCAR-8 ovarian and in the assay with SK-OV-3 ovarian was more than 100 µM each time.
